Test results: patent US9006218B2, “Nucleoside phosphonate salts” (Chimerix Inc., priority 2010, dated 2015)
Where a name gives a salt, the structure may show the parent alone. Read-outs that look alike come from different tables or passages of the source.

Experiments:
[1] = test system: XMRV collected from 22Rv1 prostate cancer cells; assay: Anti-XMRV cytoprotection assay in PG-4 cells (XTT); format: cell-based, xenotropic murine retrovirus (XMRV)
Method: The test materials were evaluated in PG-4 cells against XMRV collected from the cell-free supernatant of 22Rv1 prostate cancer cells using a complete dose response curve. The experimental details and results are discussed below.
Test materials (CMX157 K^+ salt and Tenofovir) were solubilized at 40 mM and 10 mM in water, respectively, and stored at −20° C. Test materials were evaluated using a 1 μM high test concentration and serially diluted in half-log increments for the in vitro antiviral assay (SOW104-11-01). A second assay was performed (SOW104-11-02) using a 1 μM high test concentration for CMX157, but an increased high test concentration of 100 μM for tenofovir. Ribavirin was purchased from Sigma and used as a positive control compound.
(§1) PG-cells (ATCC# CRL-2032; feline astrocytes) were passaged in T-75 flasks in McCoy's 5A medium supplemented with 10% heat inactivated fetal bovine serum, 2 mmol/L L-glutamine, 100 U/ml penicillin and 100 μg/ml streptomycin prior to use in the antiviral assay. On the day preceding the assay, cells were split 1:2 to assure they were in an exponential growth phase at the time of infection. Total cell and viability quantification were performed using a hemocytometer and Trypan Blue dye exclusion. Cell viability was to be greater than 95% for the cells to be utilized in the assay. The cells were resuspended at 5×10^4 cells per ml (SOW104-11-01) or 1×10^5 cells per mL (SOW104-11-02) in tissue culture medium and added to flat bottom microtiter plates in a volume of 100 μI for overnight incubation at 37° C./5% CO2.
(§2) Serial half-log dilutions were performed. Media was removed from the cell monolayer and 100 μL of 2× concentrations of compound-containing media (DMEM supplemented with 2% FBS, 2 mmol/L L-glutamine, 100 U/ml penicillin and 100 μg/ml streptomycin for SOW104-11-01 or PG-4 cell culture medium for SOW104-11-02) was transferred to the 96-well microtiter plate.
The XMRV virus was collected from the cell-free supernatant of 22Rv1 human prostate cancer cells (ATCC# CRL-2505). A pretitered aliquot of virus was removed from the freezer (−80° C.) and allowed to thaw in a biological safety cabinet. The virus was diluted into 2% FBS assay medium such that the amount of virus added to each well in a volume of 100 μl is the amount determined to yield 85 to 95% cell killing at six days post infection (based on optical density values) for SOW104-11-01. PG-4 cell culture medium was used to dilute virus in a volume of 100 μl is the amount determined to yield 85 to 95% cell killing at six days post infection for SOW104-11-02.
(§3) Inhibition of virus induced cytopathic effects (CPE) was quantified by measuring the reduction of the tetrazolium dye XTT (2,3-bis(2-methoxy-4-nitro-5-sulfophenyl)-5-[(phenylamino)carbonyl]-2H-tetrazoIium hydroxide). XTT in metabolically active cells is metabolized by the mitochondrial enzyme NADPH oxidase to a soluble formazan product. XTT solution was prepared daily as a stock of 1 mg/mL in PBS. Phenazine methosulfate (PMS) solution was prepared at 0.15 mg/mL in PBS and stored in the dark at −20° C. XTT/PMS stock was prepared immediately before use by adding 40 μL of PMS per mL of XTT solution. 50 μL of XTT/PMS was added to each well of the plate and the plate incubated for 4 h at 37° C. The 4 h incubation has been empirically determined to be within the linear response range for XTT dye reduction with the indicated numbers of cells for each assay. Adhesive plate sealers were used in place of the lids, the sealed plate was inverted several times to mix the soluble formazan product and the plate was read at 450 nm (650 nm reference wavelength) with a Molecular Devices SpectraMax Plus 384 96 well plate format spectrophotometer.
Raw data was collected from the Softmax Pro 4.6 software and imported into a Microsoft Excel XLfit4 spreadsheet to analyze (four parameter curve fit analysis) and graph the data. […] The EC50, EC90, TC50 and TC90 are expressed means±standard deviation.

[2] = test system: XMRV; assay: Anti-XMRV activity assay in LNCaP cells (6 day assay); format: cell-based
Source text: (§4) Specifically, the anti-XMRV activity assay was completed in LNCaP cells (6 day assay) according to the methods described in PLoS ONE, volume 5 (4), April 2010, e9948, pages 1-7.

[3] = Cytotoxicity in LNCaP cells; format: cell-based; details: human
Method: as §4
(§5) The cytotoxicity of CMX157 in LNCaP cells was also tested.

[4] = Cytotoxicity in PG-4 cells (XTT, TC50); format: cell-based, feline; details: cat
Method: as §1, §2, §3
(§6) Raw data was collected from the Softmax Pro 4.6 software and imported into a Microsoft Excel XLfit4 spreadsheet to analyze (four parameter curve fit analysis) and graph the data. Using Microsoft Excel, EC50 and EC90 (50% and 90% inhibition of virus replication), TC50 and TC90 (50% and 90% reduction in cell viability) and a therapeutic index (TI, TC50/EC50 and TC90/EC90) are provided. The EC50, EC90, TC50 and TC90 are expressed means±standard deviation. The significant figure is three digits. Raw data for both antiviral activity and toxicity with a graphic representation of the data are provided in a printout summarizing the individual compound activity.

[5] = format: physicochemical; details: general statement, see Example 2
Method: Stability testing was performed for CMX157 and its salts to investigate the quality of the compound over time under various environments. Accelerated conditions were established using an Isotemp Vacuum Oven set at either 40° C. or 60° C. If high humidity was needed, a saturated solution of sodium chloride created an air state containing about 75% humidity.
For determining the amount of CMX157 present in the samples within the stability study, a reference standard of a known purity was used. […] For analysis, 40 mg of samples and standards are dissolved in 100.0 mL diluent (80 H2O: 20 Methanol: 2 NH4OH). Separation of the drug substance and impurities was achieved using a mobile phase gradient (Table 1) on a Shimadzu A20 HPLC with a Phenomenex Synergi Polar RP 4μ 150×3 mm column. By comparing the areas for the samples at wavelength of 259 nm (kmax) to that of the reference standard, the percentage of CMX157 was determined.

[6] = test system: PG-4 cells; assay: Cytotoxicity in PG-4 cells (XTT, TC50); format: cell-based, feline
Method: as §1, §2, §3, §6

[7] = test system: LNCaP cells; assay: Cytotoxicity in LNCaP cells; format: cell-based; details: LNCaP cells
Method: as §4, §5

[8] = unidentified retrovirus, 22Rv1, in Mus musculus, read-out: PG-4/XMRV EC50, assay SOW104-11-01: 5×10^4 cells per ml, DMEM 2% FBS
[9] = unidentified retrovirus, 22Rv1, in Mus musculus, read-out: PG-4/XMRV EC50, assay SOW104-11-02: 1×10^5 cells per mL, PG-4 cell culture medium
[10] = unidentified retrovirus, 22Rv1, in Mus musculus, read-out: PG-4/XMRV EC50, third determination listed in Table 3, run not stated
[11] = third determination listed in Table 3, run not given
[12] = LNCaP cells, read-out: Cytotoxicity (IC50) LNCaP cells

Work on `Cc1cn([C@H]2C[C@H](N=[N+]=[N-])[C@@H](CO)O2)c(=O)[nH]c1=O` [AZT, 3′-azido-2′,3′-dideoxythymidine] yielded an EC50 [1, 8] of 800 nM, an EC50 [1, 9] of 70 nM and an EC50 [1, 10] of 600 nM. The EC50 ([2]; 144 h) was 8.1 ± 11 nM, the EC90 ([2]; 144 h) was 55 ± 51 nM and the IC50 [3] was greater than 100000 nM.
In the case of `CCCCCCCCCCCCCCCCOCCCOP(=O)(O)CO[C@H](C)Cn1cnc2c(N)ncnc21` [CMX157, 3-(hexadecyloxy)propyl hydrogen ((R)-1-(6-amino-9H-purin 9-yl)propan-2-yloxy)methylphosphonate], the “EC50 lower than AZT” value ([1]; XMRV in vitro, versus AZT) is reported as “approximately 20 fold”, the “EC50 lower than TFV” value ([1]; XMRV in vitro, versus TFV) is reported as roughly 800 fold and the “Therapeutic Index (TC50/EC50)” value ([1]; assay SOW104-11-01) is reported as 10.0. For the same molecule, the “Therapeutic Index (TC50/EC50)” value ([1]; assay SOW104-11-02) was greater than 333.0, the “Therapeutic Index (TC50/EC50)” value [1, 11] was 97.8 and the EC50 [1, 8] was 40 nM. For the same molecule, the EC50 [1, 9] was 3 nM, the EC50 [1, 10] was 60 nM and the EC50 ([2]; 144 h) was 3.1 ± 2.1 nM. It also gave an EC90 ([2]; 144 h) of 37 ± 16 nM, a CC50 ([4]; assay SOW104-11-01, read-out: PG-4 TC50) of 400 nM and a CC50 ([4]; assay SOW104-11-02, read-out: PG-4 TC50) greater than 1000 nM. For the same molecule, the CC50 ([4]; third determination listed in Table 3, run not given, read-out: PG-4 TC50) was 5900 nM, the IC50 [3, 12] was greater than 100000 nM and the “stability in words, free acid versus salts” value [5] was “relatively unstable”.
With `CC(C)(C)NC(=O)[C@@H]1CN(Cc2cccnc2)CCN1C[C@@H](O)C[C@@H](Cc1ccccc1)C(=O)N[C@H]1c2ccccc2C[C@H]1O` [IDV (Indinavir)] the “Therapeutic Index (TC50/EC50)” value ([1]; assay SOW104-11-02) was 2.7, the EC50 [1, 9] was 800 nM and the CC50 ([4]; PG-4 TC50) was 2200 nM.
Work on `Cc1nnc(C(=O)NC(C)(C)c2nc(C(=O)NCc3ccc(F)cc3)c(O)c(=O)n2C)o1` [Raltegravir] yielded an EC50 ([2]; 144 h) of 0.54 ± 0.57 nM, an EC90 ([2]; 144 h) of 3.2 ± 2.9 nM and an IC50 [3, 12] greater than 100000 nM.
In the case of `NC(=O)c1ncn([C@@H]2O[C@H](CO)[C@@H](O)[C@H]2O)n1` [Ribavirin, 1-β-D-ribofuranosyl-1,2,4-triazole-3-carboxamide], the “Therapeutic Index (TC50/EC50)” value ([1]; assay SOW104-11-01) is reported as 6.5, the EC50 ([1]; unidentified retrovirus, 22Rv1, in Mus musculus, read-out: PG-4/XMRV EC50, Ribavirin in μg/mL, control of SOW104-11-01) is reported as 10.1 µg/mL and the “PG-4 TC50” value ([6]; cat) is reported as 65.2 µg/mL.
With `CC(C)OC(=O)OCOP(=O)(CO[C@H](C)Cn1cnc2c(N)ncnc21)OCOC(=O)OC(C)C` [Tenofovir disoproxil fumarate, 2,4,6,8-Tetraoxa-5-phosphanonanedioic acid, 5-[[(1R)-2-(6-amino-9H-purin-9-yl)-1-methylethoxy]methyl]-, bis(1-methylethyl)ester, 5-oxide, (2E)-2-butenedioate (1:1)] the EC50 ([2]; 144 h) was 29 ± 26 nM, the EC90 ([2]; 144 h) was 210 ± 150 nM and the IC50 [3] was 87400 nM.
With `C[C@H](Cn1cnc2c(N)ncnc21)OCP(=O)(O)O` [Tenofovir, (R)-9-(2-phosphonylmethoxypropyl)adenine] the EC50 ([1]; assay SOW104-11-01: 5×10^4 cells per ml, DMEM 2% FBS, read-out: PG-4/XMRV EC50) was greater than 1000 nM, the “Therapeutic Index (TC50/EC50)” value ([1]; assay SOW104-11-02) was greater than 41.5 and the EC50 ([1]; assay SOW104-11-02: 1×10^5 cells per mL, PG-4 cell culture medium, read-out: PG-4/XMRV EC50) was 2400 nM. The “Therapeutic Index (TC50/EC50)” value [1, 11] was greater than 38.6, the EC50 ([1]; third determination listed in Table 3, run not given, read-out: PG-4/XMRV EC50) was 2600 nM and the EC50 [2] was 4500 ± 3800 nM. For the same molecule, the EC90 [2] was 17400 ± 9000 nM, the CC50 ([6]; assay SOW104-11-01) was greater than 1000 nM and the CC50 ([6]; assay SOW104-11-02) was greater than 100000 nM. It also gave a CC50 [6, 11] greater than 100000 nM and an IC50 [7] greater than 100000 nM.
